# Source: patent publication US20230118911A1, “PROTEOLYSIS TARGETING CHIMERA (PROTAC) FOR DEGRADATION OF AURORA A-KINASE” (Julius-Maximilians-Universitaet Wuerzburg, priority 2020, published 2023)
# Assays:
# Aurora-A [1] = biological target: T1, Aurora-A (Homo sapiens, UniProt O14965); assay: Immunoblot of endogenous Aurora-A in MV4-11 cells after a single dose of degrader; type: cell-based; set-up: resulting in degradation of endogenous Aurora-A; endogenous in cells; host or cells: MV4-11
# T1 sequence (O14965 1-403): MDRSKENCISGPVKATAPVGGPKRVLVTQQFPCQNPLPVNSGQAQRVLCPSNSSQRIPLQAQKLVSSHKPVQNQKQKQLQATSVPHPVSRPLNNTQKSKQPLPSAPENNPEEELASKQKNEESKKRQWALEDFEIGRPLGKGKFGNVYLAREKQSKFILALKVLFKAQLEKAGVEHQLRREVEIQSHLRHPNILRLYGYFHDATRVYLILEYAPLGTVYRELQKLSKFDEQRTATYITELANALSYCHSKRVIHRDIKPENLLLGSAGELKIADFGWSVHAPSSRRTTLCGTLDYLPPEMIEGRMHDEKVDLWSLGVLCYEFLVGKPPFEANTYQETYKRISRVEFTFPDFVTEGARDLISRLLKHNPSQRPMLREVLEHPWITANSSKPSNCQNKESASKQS
# Method: (§1) Then, the cells were lysed in RIPA lysis buffer (50 mM HEPES pH 7.9, 140 mM NaCl, 1 mM EDTA, 1% Triton X-100, 0.1% SDS, 0.1% sodium deoxycholate) containing protease and phosphatase inhibitors (Sigma) and incubated for 20 minutes at 4° C. in head-over-tail. Lysates were cleared by centrifugation. Protein quantification was done using BCA assay and equal amounts of proteins were separated by BisTris-PAGE and transferred to PVDF membranes (Millipore). The membranes were blocked with 5% (w/v) nonfat dry milk dissolved in TBS-T (20 mM Tris/HCl, pH 7.5, 150 mM NaCl, and 0.1% (v/v) Tween 20) at RT for 1 hour and then incubated with the primary antibody overnight at 4° C. Visualization was done with HRP-labeled secondary antibodies and detected using Chemiluminescent HRP substrate (Millipore) in LAS3000 or LAS4000 Mini (Fuji). The signal was quantified using ImageJ (version 1.52q) or Image Studio Lite (LI-COR Biosciences, Version 5.2.5). […] Error bars represent standard deviations of four biological replicate experiments.
# MV4-11 cells [2] = assay: alamarBlue cell viability assay; type: cell-based; settings: Homo sapiens, 1 μM (refreshed every 24 h), 72 hours, read-out: viable cells compared to control cells
# Method: The alamarBlue assay (Thermo Fisher Scientific) was performed according to manufacturer's instruction using HS Cell Viability Reagent. The fluorescence was measured in Tecan Infinite-200 using a fluorescence excitation wavelength of 550 and an emission of 600 nm.
# MV4-11 cells [3] = assay: Annexin-PI FACS apoptosis assay in MV4-11 cells; type: cell-based, human; settings: 0.5 μM, 72 hours
# Method: (§2) For Annexin-PI FACS, the medium in which the cells were cultured was combined with the cells.
# (§3) The cells were washed once with ice-cold PBS, resuspended in 100 μl Annexin V Binding buffer (10 mM HEPES pH 7.4, 140 mM NaCl, 2.5 mM CaCl2)) with 2 μl of Annexin V/Pacific Blue dye and incubated for 15 minutes in the dark at room temperature. 400 μl Annexin V Binding buffer with propidium iodide (18.5 μM) was added and the samples were stored cold and in the dark until analysis.
# IMR5 cells = assay: Annexin-PI FACS apoptosis assay in IMR5 cells with or without Aurora-A T217D expression; settings: 0.5 μM, 72 hours, doxycycline-induced Aurora-A T217D vs EtOH control
# Method: as §2, §3
# Aurora-AT^217D is a functional mutant of Aurora-A. IMR5 cells express Aurora-A^T217D upon incubation with doxycycline (Dox) but not upon incubation with ethanol (control-EtOH).
# Aurora-A [4] = biological target: T1, Aurora-A; assay: Immunoblot of endogenous Aurora-A, MV4-11 cells treated with various concentrations for 6 hours; type: cell-based; set-up: resulting in degradation of endogenous Aurora-A; endogenous in cells; host or cells: MV4-11
# Method: as §1
# Afterwards, cells were lysed in RIPA lysis buffer (50 mM HEPES pH 7.9, 140 mM NaCl, 1 mM EDTA, 1% Triton X-100, 0.1% SDS, 0.1% sodium deoxycholate) containing protease and phosphatase inhibitors (Sigma) and incubated for 20 minutes at 4° C. in head-over-tail. Further processing of resulting cell lysates and immunoblotting was performed as described above.
compound,measurement,setting,value
"COc1cc(Nc2ncc3c(n2)-c2ccc(Cl)cc2C(c2c(F)cccc2OC)=NC3)ccc1C(=O)NCCOCCOCCC(=O)N[C@H](C(=O)N1C[C@H](O)C[C@H]1C(=O)NCc1ccc(-c2scnc2C)cc1)C(C)(C)C [JB160, VHL-PEG2-alisertib]",Aurora-A steady-state levels,"Aurora-A [1]; single dose, VHL-ligand-based degraders",neither of the VHL-ligand-based degraders JB160 and JB161 reduced Aurora-A steady-state levels
"COc1cc(Nc2ncc3c(n2)-c2ccc(Cl)cc2C(c2c(F)cccc2OC)=NC3)ccc1C(=O)NCCOCCOCCNC(=O)COc1cccc2c1C(=O)N(C1CCC(=O)NC1=O)C2=O (stereo not drawn) [JB170, thalidomide-PEG2-alisertib]",viability at 1 µM,MV4-11 cells [2],32%
same,Annexin-positive cells,MV4-11 cells [3],56%
same,effect of Aurora-A T217D expression on induced apoptosis,IMR5 cells,completely reverted the induction of apoptosis
same,Aurora-A levels,Aurora-A [4]; 10 nM,significantly decreased
same,Aurora-A degradation,Aurora-A [4]; 100 nM and 1 μM,almost complete degradation
same,Hook effect on Aurora-A depleting activity,Aurora-A [4]; high concentrations,reversal of the Aurora-A depleting activity was observed
"COc1cc(Nc2ncc3c(n2)-c2ccc(Cl)cc2C(c2c(F)cccc2OC)=NC3)ccc1C(=O)O [alisertib, reference compound]",Aurora-A levels,Aurora-A [4]; 1 μM,"did not decrease Aurora-A levels, but induced a significant increase"
thalidomide-PEG3-alisertib [JB158],reduction of Aurora-A protein level,"Aurora-A [1]; single dose (0.1 μM, 1 μM), compared to control cells",62%
